Experimental data taken from patent US20110045101A1, “FUNGICIDAL SUBSTITUTED AZOLES” (E.I. Du Pont De Nemours and Company, priority 2009, published 2011).
Marks after values point to notes of the source that are not given here.

Experiments:
Type in all cases: in vivo
Settings in all cases: 100 = 100% disease control
[1] = tested on: Erysiphe graminis f. sp. tritici; assay: Test J: wheat powdery mildew on wheat seedlings, sprayed the day before inoculation, visual disease rating
Text: (§1) General protocol for preparing test suspensions for Tests A-J: The test compounds were first dissolved in acetone in an amount equal to 3% of the final volume and then suspended at the desired concentration (in ppm) in acetone and purified water (50/50 mix) containing 250 ppm of the surfactant Trem® 014 (polyhydric alcohol esters). The resulting test suspensions were then used in tests A-J. Spraying a 200 ppm test suspension to the point of run-off on the test plants was the equivalent of a rate of 500 g/ha. […] The test suspension was sprayed to the point of run-off on wheat seedlings. […] A dash (-) indicates no test results. All results are for 200 ppm except where followed by “*”, which indicates 40 ppm.

[2] = tested on: Puccinia recondita f. sp. tritici; assay: Test I: wheat leaf rust on wheat seedlings, sprayed the day before inoculation, visual disease rating
Text: as §1

[3] = tested on: Botrytis cinerea; assay: Test C: tomato Botrytis on tomato seedlings, sprayed the day before inoculation, visual disease rating
Text: General protocol for preparing test suspensions for Tests A-J: The test compounds were first dissolved in acetone in an amount equal to 3% of the final volume and then suspended at the desired concentration (in ppm) in acetone and purified water (50/50 mix) containing 250 ppm of the surfactant Trem® 014 (polyhydric alcohol esters). The resulting test suspensions were then used in tests A-J. Spraying a 200 ppm test suspension to the point of run-off on the test plants was the equivalent of a rate of 500 g/ha. […] The test suspension was sprayed to the point of run-off on tomato seedlings. […] A dash (-) indicates no test results. All results are for 200 ppm except where followed by “*”, which indicates 40 ppm.

[4] = tested on: Septoria nodorum; assay: Test F: wheat glume blotch on wheat seedlings, sprayed the day before inoculation, visual disease rating
Text: as §1

[5] = tested on: Alternaria solani; assay: Test D: tomato early blight, sprayed the day before inoculation, visual disease rating
Text: as §1

[6] = tested on: Septoria tritici; assay: Test G: wheat leaf blotch on wheat seedlings, sprayed the day before inoculation, visual disease rating
Text: General protocol for preparing test suspensions for Tests A-J: The test compounds were first dissolved in acetone in an amount equal to 3% of the final volume and then suspended at the desired concentration (in ppm) in acetone and purified water (50/50 mix) containing 250 ppm of the surfactant Trem® 014 (polyhydric alcohol esters). The resulting test suspensions were then used in tests A-J. Spraying a 200 ppm test suspension to the point of run-off on the test plants was the equivalent of a rate of 500 g/ha. […] The test suspension was sprayed to the point of run-off on wheat seedlings. The following day the seedlings were inoculated with a spore suspension of Septoria tritici (the causal agent of wheat leaf blotch) and incubated in saturated atmosphere at 24° C. for 48 h, and then moved to a growth chamber at 20° C. for 19 days, after which time visual disease ratings were made. […] A dash (-) indicates no test results. All results are for 200 ppm except where followed by “*”, which indicates 40 ppm.

[7] = 200 ppm, 0 = no control relative to controls

SMILES	Test J disease control rating ([1]; 40 ppm (marked *))	Test I disease control rating ([2]; 40 ppm (marked *))	Test C disease control rating ([3]; 40 ppm (marked *))	Test F disease control rating ([4]; 40 ppm (marked *))	Test D disease control rating ([5]; 40 ppm (marked *))	Test G disease control rating ([6]; 40 ppm (marked *))	Test J disease control rating [1, 7]	Test I disease control rating [2, 7]	Test C disease control rating [3, 7]	Test F disease control rating [4, 7]	Test D disease control rating [5, 7]	Test G disease control rating [6, 7]
COc1cc(F)c(-c2c(C)ncn2-c2ccc(Cl)c(F)c2)c(F)c1 [compound 46]	78* %	26* %	86* %	0* %	97* %	83* %	–	–	–	–	–	–
Cc1nc(Cl)c(-c2c(F)ccc(F)c2F)n1-c1ccc(Cl)cc1 [compound 48]	–	–	–	–	–	–	100%	100%	99%	100%	100%	94%
Cc1nc(Cl)c(-c2ccc(F)cc2Cl)n1-c1ccc(Cl)cc1 [compound 49]	–	–	–	–	–	–	99%	99%	98%	100%	100%	94%
Fc1ccc(F)c(-c2c(Cl)nc(Br)n2-c2ccc(Cl)cc2)c1F [compound 50]	–	–	–	–	–	–	100%	100%	98%	100%	100%	92%
Fc1ccc(-c2c(Cl)nc(Br)n2-c2ccc(Cl)cc2)c(Cl)c1 [compound 51]	–	–	–	–	–	–	99%	97%	94%	100%	100%	94%
Fc1cccc(Cl)c1-c1c(Cl)nc(Br)n1-c1ccc(Cl)cc1 [compound 52]	–	–	–	–	–	–	100%	99%	84%	0%	100%	97%
Cc1nc(Cl)c(-c2c(F)cccc2Cl)n1-c1ccc(Cl)cc1 [compound 53]	–	–	–	–	–	–	99%	100%	89%	0%	100%	95%
Fc1cc(F)cc(-n2c(Br)nc(Cl)c2-c2c(F)cccc2F)c1 [compound 54]	–	–	–	–	–	–	91%	99%	92%	0%	24%	87%
COc1cc(F)c(-c2c(C)nc(C)n2-c2ccc(Cl)cc2)c(F)c1 [compound 55]	100* %	99* %	94* %	98* %	100* %	93* %	–	–	–	–	–	–
COc1cc(F)c(-c2c(C)ncn2-c2ccc(Cl)cc2)c(F)c1 [compound 56]	–	94* %	96* %	60* %	100* %	96* %	99%	–	–	–	–	–
Fc1ccccc1-n1c(Br)nc(Cl)c1-c1c(F)cccc1F [compound 58]	–	–	–	–	–	–	100%	99%	98%	51%	100%	79%
COc1cc(F)c(-c2c(Br)nc(C)n2-c2ccc(Cl)cc2)c(F)c1C [compound 59]	97* %	86* %	93* %	82* %	100* %	97* %	–	–	–	–	–	–
Cc1nn(C)c(-c2c(F)cccc2Cl)c1-c1ccc(Cl)cc1 [compound 61]	–	–	–	–	–	–	99%	92%	40%	0%	0%	60%
Cc1nn(C)c(-c2c(F)cccc2Cl)c1-c1cccc(F)c1 [compound 62]	–	–	–	–	–	–	81%	0%	94%	0%	0%	5%
Cc1nn(C)c(-c2c(F)cccc2Cl)c1-c1ccc(Cl)c(F)c1 [compound 63]	–	–	–	–	–	–	100%	41%	0%	0%	0%	33%
Cc1nc(Cl)c(-c2c(F)cccc2F)n1-c1ccccc1F [compound 64]	–	–	–	–	–	–	96%	100%	99%	95%	100%	95%
Fc1cccc(F)c1-c1c(Cl)nc(Br)n1-c1ccc(Br)cc1 [compound 66]	–	–	–	–	–	–	99%	99%	99%	99%	100%	94%
Cc1nn(C)c(-c2c(F)cccc2F)c1-c1ccc(Cl)c(F)c1 [compound 68]	–	–	–	–	–	–	99%	9%	0%	0%	0%	40%
Cc1nn(C)c(-c2c(F)cc(F)cc2F)c1-c1ccc(Cl)cc1 [compound 69]	–	–	–	–	–	–	97%	0%	74%	0%	99%	25%
Cc1nn(C)c(-c2c(F)cc(F)cc2F)c1-c1cccc(F)c1 [compound 70]	–	–	–	–	–	–	0%	0%	71%	0%	0%	0%
Cc1nn(C)c(-c2c(F)cc(F)cc2F)c1-c1ccc(Cl)c(F)c1 [compound 71]	–	–	–	–	–	–	56%	9%	47%	0%	33%	2%
Fc1ccc(-n2c(Br)nc(Cl)c2-c2c(F)cccc2F)cc1 [compound 72]	–	–	–	–	–	–	100%	99%	96%	92%	100%	97%
Cc1nc(Cl)c(-c2c(F)cccc2F)n1-c1cc(F)cc(F)c1 [compound 73]	–	–	–	–	–	–	100%	100%	100%	60%	100%	87%
Fc1ccc(F)c(-c2c(Cl)ncn2-c2ccc(Cl)cc2)c1Cl [compound 74]	–	–	–	–	–	–	99%	99%	98%	31%	96%	98%
Fc1ccc(Br)c(F)c1-c1c(Cl)ncn1-c1ccc(Cl)cc1 [compound 75]	–	–	–	–	–	–	98%	77%	98%	0%	93%	95%
Fc1ccc(F)c(-c2c(Cl)nc(Br)n2-c2ccc(Cl)cc2)c1Cl [compound 76]	–	–	–	–	–	–	100%	99%	37%	60%	99%	97%
